Source: publication PMC3481155, “AhR activation underlies the CYP1A autoinduction by A-998679 in rats” (Frontiers in Genetics, 2012)

How the values were obtained:
[1] = target: T1, CYP2D6 (Homo sapiens, UniProt P10635); assay: CYP inhibition evaluation in human liver microsomes, CYP2D6 (dextromethorphan); assay type: in vitro ADME; settings: probe substrate dextromethorphan
T1 construct: from tissue; host or cells: human liver microsomes
Method: (§1) Incubations were performed in human liver microsomes using probe substrate concentrations similar to their corresponding Km values. Enzyme activity was evaluated in the presence of various concentrations of A-998679. The incubations consisted of the test article at varying concentrations (0–30 μM), probe substrate (concentration ~Km, see Table A2), human liver microsomal protein and 1 mM NADPH in 50 mM phosphate buffer at pH 7.4. Relative quantitation of the metabolites was obtained by LC-MS/MS using an ABSciex (Foster City, CA) API3000 or API4000 Qtrap hybrid linear ion trap mass spectrometer equipped with a TurboIonspray source using either PerkinElmer series 200 pumps or Agilent 1100 series pump with a Leap autosampler. Analytes were separated using a Phenomenex Prodigy ODS(3) 5 μm, 50 × 2.0 mm column at 50°C, eluted and detected under the specific conditions listed in Tables A3, A4, and A5. The analyte to internal standard peak area ratios were determined using Analyst 1.4 software (Applied Biosytems, Carlsbad, CA). The peak area ratios observed in the presence of test article were compared to the vehicle control in order to determine percent activity. To determine the IC50, the data were plotted as Log [dose] μM vs. % inhibition, and analyzed with a sigmoidal dose-response (variable slope) fitting equation. […]

[2] = test system: Cyp1a1; assay: Cyp1a1 mRNA in rat small intestine (jejunum); assay type: in vivo
Method: All animal experiments were conducted in accordance with the Guiding Principles in the Use of Animals in Toxicology (http://www.toxicology.org/ai/air/air6.asp) and were approved by Abbott's Institutional Animal Care and Use Committee (IACUC). Male Sprague-Dawley rats [Crl:CD®(SD)IGS BR], weighing ~250 g at study initiation were obtained from Charles River Laboratories, Inc. (Wilmington, MA). Rats were housed singly in ventilated, stainless steel, wire-bottom hanging cages and fed non-certified Rodent Chow (Harlan Labs, Madison, WI), and water ad libitum and acclimated for at least 5 days after arrival. […] Serum clinical chemistry parameters were quantified using an Aeroset Clinical Chemistry Analyzer (Abbott Laboratories, Abbott Park, IL) and included alanine amino transferase (ALT), aspartate amino transferase (AST), gamma glutamyltransferase (GGT), and alkaline phosphatase (ALP) activities.
Frozen liver or jejunum were immediately added to 4 ml of TRIzol reagent (Invitrogen Life Technologies) and homogenized using a Polytron 300D homogenizer (Brinkman Instruments, Westbury, NY). […] Nucleic acid concentration was determined by OD 260 nm (Smart-Spec, Bio-Rad Laboratories, Hercules, CA), and RNA integrity was evaluated using an Agilent 2100 bioanalyzer (Agilent Technologies, Foster City, CA). […]

[3] = test system: CYP1A1; assay: CYP1A1 mRNA induction in primary human hepatocytes; assay type: cell-based; settings: 24 h, dose-dependent
Method: (§2) Rat hepatocytes were isolated in a perfusion procedure as described previously (Elliget and Kolaja, [1983]; Waring et al., [2001]). The beagle dog hepatocytes were isolated in the same manner, except for adjustment of flow rate and buffer volume to scale to liver size. Cells were plated at a seeding density of 1.0 × 10^6 cells per well on 6-well, collagen-type I coated plates (BD Biosciences, Bedford, MA) in hepatocyte plating medium (Celsis, Baltimore, MD). Cells were allowed to attach for 24 h in a 37°C humidified incubator with a 5% CO2 atmosphere and were dosed for 24 h (rat) or 48 h (dog) with vehicle control [0.1% DMSO (v/v)] or 10 μM A-998679 in fresh treatment media (Celsis hepatocyte incubation media) every 24 h. After the last incubation, cells were lysed in 1 ml of Qiazol (Qiagen) and stored at −80°C until RNA isolation. Cryopreserved human hepatocytes (donor designation Hu4198; Invitrogen Life Technologies, Carlsbad, CA) were thawed and plated according to the manufacturer's protocol and allowed to incubate for 24 h. […]
(§3) RNA samples were diluted with RNase-free molecular biology grade water to a concentration of 20 ng/μl total RNA. […] Results were analyzed by calculating the fold change of CYP1A1 and/or CYP1A2 mRNA levels normalized to 28S rRNA (ΔΔ Ct) in compound treated cells or tissues compared to vehicle levels. […]

[4] = target: T2, CYP2C19 (Homo sapiens, UniProt P33261); assay: CYP inhibition evaluation in human liver microsomes, CYP2C19 (S-mephenytoin); assay type: in vitro ADME; settings: probe substrate S-mephenytoin
T2 construct: from tissue; host or cells: human liver microsomes
T2 sequence (P33261 whole entry): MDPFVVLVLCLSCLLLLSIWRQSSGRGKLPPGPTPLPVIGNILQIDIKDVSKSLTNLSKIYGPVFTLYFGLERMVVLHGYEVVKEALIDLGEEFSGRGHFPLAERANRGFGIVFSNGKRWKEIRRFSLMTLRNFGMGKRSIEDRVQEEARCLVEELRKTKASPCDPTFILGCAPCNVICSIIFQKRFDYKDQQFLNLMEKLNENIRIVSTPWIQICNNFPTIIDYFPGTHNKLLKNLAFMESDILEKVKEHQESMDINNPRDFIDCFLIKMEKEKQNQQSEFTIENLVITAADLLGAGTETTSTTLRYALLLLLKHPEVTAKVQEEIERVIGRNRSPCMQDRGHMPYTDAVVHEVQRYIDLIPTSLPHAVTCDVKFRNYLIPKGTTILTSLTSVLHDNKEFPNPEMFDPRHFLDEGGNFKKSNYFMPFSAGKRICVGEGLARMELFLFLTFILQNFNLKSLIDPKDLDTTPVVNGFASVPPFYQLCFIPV
Method: as §1

[5] = test system: CYP1A2; assay: CYP1A2 mRNA induction in primary dog hepatocytes; assay type: cell-based; settings: 10 μM, 48 h, data not shown
Method: as §2, §3

T1 sequence (P10635 whole entry): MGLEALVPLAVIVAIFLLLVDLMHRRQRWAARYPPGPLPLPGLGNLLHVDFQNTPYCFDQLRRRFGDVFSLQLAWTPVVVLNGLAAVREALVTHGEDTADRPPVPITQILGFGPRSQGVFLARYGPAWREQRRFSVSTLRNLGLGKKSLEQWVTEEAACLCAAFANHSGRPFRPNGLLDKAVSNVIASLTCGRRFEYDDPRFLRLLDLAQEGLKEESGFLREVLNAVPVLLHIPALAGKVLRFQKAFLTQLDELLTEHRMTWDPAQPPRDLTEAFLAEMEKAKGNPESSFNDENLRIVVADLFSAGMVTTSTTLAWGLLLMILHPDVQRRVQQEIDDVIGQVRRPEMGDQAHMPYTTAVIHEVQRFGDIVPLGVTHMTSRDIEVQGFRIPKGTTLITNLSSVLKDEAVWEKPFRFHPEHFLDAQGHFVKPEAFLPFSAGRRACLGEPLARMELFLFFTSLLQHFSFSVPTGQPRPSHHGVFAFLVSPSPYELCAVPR

## N#Cc1cccc(-c2noc(-c3cccnc3)n2)c1 [A-998679, 3-(5-pyridin-3-yl-1,2,4-oxadiazol-3-yl) benzonitrile]
[1]
  IC50: > 30 µM
[2]; 200 mg/kg
  Cyp1a1 mRNA expression in rat jejunum: significantly decreased
[2]; 30 and 100 mg/kg, high interindividual variability
  Cyp1a1 mRNA expression in rat jejunum: increased
[3]
  lowest concentration inducing CYP1A1 mRNA: 3 µM
[4]
  IC50: > 30 µM
[5]
  CYP1A2 mRNA induction: also observed
